Results published in patent US9226916B2, “Pyrrolidine derivatives” (HOFFMANN-LA ROCHE INC., priority 2009, dated 2016).
Where two headings read alike, the source gives them in different places.

Molecular target: T1, recombinant human NK3 receptor (Homo sapiens, UniProt P29371)
T1 construct: expressed in transfected cells; host or cells: HEK293 cells, transient expression; membranes
T1 sequence (P29371 1-465): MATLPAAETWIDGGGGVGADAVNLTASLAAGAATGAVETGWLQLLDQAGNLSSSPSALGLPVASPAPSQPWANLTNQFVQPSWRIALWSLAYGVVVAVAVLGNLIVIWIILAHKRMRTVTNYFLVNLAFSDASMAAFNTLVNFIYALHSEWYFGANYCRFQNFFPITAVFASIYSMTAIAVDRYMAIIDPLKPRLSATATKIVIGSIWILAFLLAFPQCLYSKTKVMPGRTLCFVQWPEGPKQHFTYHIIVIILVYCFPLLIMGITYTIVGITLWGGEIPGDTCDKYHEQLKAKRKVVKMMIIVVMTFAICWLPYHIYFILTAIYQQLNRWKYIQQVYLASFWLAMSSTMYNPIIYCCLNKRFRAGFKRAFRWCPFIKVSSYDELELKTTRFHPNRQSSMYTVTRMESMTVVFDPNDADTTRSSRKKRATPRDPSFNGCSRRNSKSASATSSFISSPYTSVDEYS
Assay: [3H]SR142801 competition binding assay

Ki (hNK-3 receptor affinity, membranes from HEK293 cells transiently expressing recombinant human NK3 receptor, [3H]SR142801, Cheng-Prussoff, read-out: Data Ki) [nM]	Structure (SMILES)	Ki [nM]
–	CN(C(=O)O[C@H]1C[C@H]2CC[C@@H]1C2)[C@H]1CN(C(=O)C2CCN(C(=O)C3(C)CC3)CC2)C[C@@H]1c1ccc(Cl)c(Cl)c1 (mixture of isomers) [Example 68, {(3R,4S)-4-(3,4-Dichloro-phenyl)-1-[1-(1-methyl-cyclopropanecarbonyl)-piperidine-4-carbonyl]-pyrrolidin-3-yl}-methyl-carbamic acid (1R,2S,4S)-bicyclo[2.2.1]hept-2-yl ester and {(3S,4R)-4-(3,4-Dichloro-phenyl)-1-[1-(1-methyl-cyclopropanecarbonyl)-piperidine-4-carbonyl]-pyrrolidin-3-yl}-methyl-carbamic acid (1R,2S,4S)-bicyclo[2.2.1]hept-2-yl ester]	62.6
–	CN(C(=O)O[C@@H]1C[C@H]2CC[C@@H]1C2)[C@H]1CN(C(=O)C2CCN(C(=O)C3(C)CC3)CC2)C[C@@H]1c1ccc(Cl)c(Cl)c1 (mixture of isomers) [Example 69, {(3R,4S)-4-(3,4-Dichloro-phenyl)-1-[1-(1-methyl-cyclopropanecarbonyl)-piperidine-4-carbonyl]-pyrrolidin-3-yl}-methyl-carbamic acid (1R,2R,4S)-bicyclo[2.2.1]hept-2-yl ester and {(3S,4R)-4-(3,4-Dichloro-phenyl)-1-[1-(1-methyl-cyclopropanecarbonyl)-piperidine-4-carbonyl]-pyrrolidin-3-yl}-methyl-carbamic acid (1R,2R,4S)-bicyclo[2.2.1]hept-2-yl ester]	7.6
–	CN(C(=O)Oc1ccc(F)cc1)[C@H]1CN(C(=O)C2CCN(C(=O)C3(C)CC3)CC2)C[C@@H]1c1ccc(Cl)c(Cl)c1 (racemic) [Example 2, rac-{(3R,4S)-4-(3,4-Dichloro-phenyl)-1-[1-(1-methyl-cyclopropanecarbonyl)-piperidine-4-carbonyl]-pyrrolidin-3-yl}-methyl-carbamic acid 4-fluoro-phenyl ester]	0.4
–	CN(C(=O)Oc1ccc(F)cc1)[C@H]1CN(C(=O)C2CCN(CC3CC3)CC2)C[C@@H]1c1ccc(Cl)c(Cl)c1 (racemic) [Example 4, rac-[(3R,4S)-1-(1-Cyclopropylmethyl-piperidine-4-carbonyl)-4-(3,4-dichloro-phenyl)-pyrrolidin-3-yl]-methyl-carbamic acid 4-fluoro-phenyl ester]	1.8
–	CN(C(=O)Oc1ccccc1)[C@H]1CN(C(=O)C2CCN(CC3CC3)CC2)C[C@@H]1c1ccc(Cl)c(Cl)c1 (racemic) [Example 7, rac-[(3R,4S)-1-(1-Cyclopropylmethyl-piperidine-4-carbonyl)-4-(3,4-dichloro-phenyl)-pyrrolidin-3-yl]-methyl-carbamic acid phenyl ester]	9.6
–	Cc1ccc(OC(=O)N(C)[C@H]2CN(C(=O)C3CCN(CC4CC4)CC3)C[C@@H]2c2ccc(Cl)c(Cl)c2)cc1 (racemic) [Example 8, rac-[(3R,4S)-1-(1-Cyclopropylmethyl-piperidine-4-carbonyl)-4-(3,4-dichloro-phenyl)-pyrrolidin-3-yl]-methyl-carbamic acid p-tolyl ester]	4
–	COc1ccc(OC(=O)N(C)[C@H]2CN(C(=O)C3CCN(CC4CC4)CC3)C[C@@H]2c2ccc(Cl)c(Cl)c2)cc1 (racemic) [Example 9, rac-[(3R,4S)-1-(1-Cyclopropylmethyl-piperidine-4-carbonyl)-4-(3,4-dichloro-phenyl)-pyrrolidin-3-yl]-methyl-carbamic acid 4-methoxy-phenyl ester]	13.6
–	CN(C(=O)Oc1ccc(Cl)cc1)[C@H]1CN(C(=O)C2CCN(CC3CC3)CC2)C[C@@H]1c1ccc(Cl)c(Cl)c1 (racemic) [Example 10, rac-[(3R,4S)-1-(1-Cyclopropylmethyl-piperidine-4-carbonyl)-4-(3,4-dichloro-phenyl)-pyrrolidin-3-yl]-methyl-carbamic acid 4-chloro-phenyl ester]	1.5
–	CCCCOC(=O)N(C)[C@H]1CN(C(=O)C2CCN(CC3CC3)CC2)C[C@@H]1c1ccc(Cl)c(Cl)c1 (racemic) [Example 11, rac-[(3R,4S)-1-(1-Cyclopropylmethyl-piperidine-4-carbonyl)-4-(3,4-dichloro-phenyl)-pyrrolidin-3-yl]-methyl-carbamic acid butyl ester]	27.1
–	CN(C(=O)Oc1ccc(Cl)cc1)[C@H]1CN(C(=O)C2CCN(C(=O)C3(C)CC3)CC2)C[C@@H]1c1ccc(Cl)c(Cl)c1 (racemic) [Example 12, rac-{(3R,4S)-4-(3,4-Dichloro-phenyl)-1-[1-(1-methyl-cyclopropanecarbonyl)-piperidine-4-carbonyl]-pyrrolidin-3-yl}-methyl-carbamic acid 4-chloro-phenyl ester]	0.6
–	CN(C(=O)Oc1ccccc1)[C@H]1CN(C(=O)C2CCN(C(=O)C3(C)CC3)CC2)C[C@@H]1c1ccc(Cl)c(Cl)c1 (racemic) [Example 13, rac-{(3R,4S)-4-(3,4-Dichloro-phenyl)-1-[1-(1-methyl-cyclopropanecarbonyl)-piperidine-4-carbonyl]-pyrrolidin-3-yl}-methyl-carbamic acid phenyl ester]	2
–	Cc1ccc(OC(=O)N(C)[C@H]2CN(C(=O)C3CCN(C(=O)C4(C)CC4)CC3)C[C@@H]2c2ccc(Cl)c(Cl)c2)cc1 (racemic) [Example 14, rac-{(3R,4S)-4-(3,4-Dichloro-phenyl)-1-[1-(1-methyl-cyclopropanecarbonyl)-piperidine-4-carbonyl]-pyrrolidin-3-yl}-methyl-carbamic acid p-tolyl ester]	1.2
–	COc1ccc(OC(=O)N(C)[C@H]2CN(C(=O)C3CCN(C(=O)C4(C)CC4)CC3)C[C@@H]2c2ccc(Cl)c(Cl)c2)cc1 (racemic) [Example 15, rac-{(3R,4S)-4-(3,4-Dichloro-phenyl)-1-[1-(1-methyl-cyclopropanecarbonyl)-piperidine-4-carbonyl]-pyrrolidin-3-yl}-methyl-carbamic acid p-methoxyphenyl ester]	2.5
–	CN(C(=O)OCC(C)(C)C)[C@H]1CN(C(=O)C2CCN(C(=O)C3(C)CC3)CC2)C[C@@H]1c1ccc(Cl)c(Cl)c1 (racemic) [Example 22, rac-{(3R,4S)-4-(3,4-Dichloro-phenyl)-1-[1-(1-methyl-cyclopropanecarbonyl)-piperidine-4-carbonyl]-pyrrolidin-3-yl}-methyl-carbamic acid 2,2-dimethyl-propyl ester]	16.9
–	CN(C(=O)OCC1CC1)[C@H]1CN(C(=O)C2CCN(C(=O)C3(C)CC3)CC2)C[C@@H]1c1ccc(Cl)c(Cl)c1 (racemic) [Example 24, rac-{(3R,4S)-4-(3,4-Dichloro-phenyl)-1-[1-(1-methyl-cyclopropanecarbonyl)-piperidine-4-carbonyl]-pyrrolidin-3-yl}-methyl-carbamic acid cyclopropylmethyl ester]	33.5
5.4	CN(C(=O)OCCC1CC1)[C@H]1CN(C(=O)C2CCN(C(=O)C3(C)CC3)CC2)C[C@@H]1c1ccc(Cl)c(Cl)c1 (racemic) [Example 25, rac-{(3R,4S)-4-(3,4-Dichloro-phenyl)-1-[1-(1-methyl-cyclopropanecarbonyl)-piperidine-4-arbonyl]-pyrrolidin-3-yl}-methyl-carbamic acid 2-cyclopropyl-ethyl ester]	–
–	CN(C(=O)Oc1ccc(F)cc1)[C@H]1CN(C(=O)C2CCN(C(=O)C3(C)CC3)CC2)C[C@@H]1c1ccc(Cl)cc1 (racemic) [Example 26, rac-{(3R,4S)-4-(4-Chloro-phenyl)-1-[1-(1-methyl-cyclopropanecarbonyl)-piperidine-4-carbonyl]-pyrrolidin-3-yl}-methyl-carbamic acid 4-fluoro-phenyl ester]	2.9
–	CCCCOC(=O)N(C)[C@H]1CN(C(=O)C2CCN(C(=O)C3(C)CC3)CC2)C[C@@H]1c1ccc(Cl)cc1 (racemic) [Example 27, rac-{(3R,4S)-4-(4-Chloro-phenyl)-1-[1-(1-methyl-cyclopropanecarbonyl)-piperidine-4-carbonyl]-pyrrolidin-3-yl}-methyl-carbamic acid butyl ester]	30.7
–	CN(C(=O)OCCC(C)(C)C)[C@H]1CN(C(=O)C2CCN(C(=O)C3(C)CC3)CC2)C[C@@H]1c1ccc(Cl)c(Cl)c1 (racemic) [Example 30, rac-{(3R,4S)-4-(3,4-Dichloro-phenyl)-1-[1-(1-methyl-cyclopropanecarbonyl)-piperidine-4-carbonyl]-pyrrolidin-3-yl}-methyl-carbamic acid 3,3-dimethyl-butyl ester]	10.3
–	CN(C(=O)OCC1CCOCC1)[C@H]1CN(C(=O)C2CCN(C(=O)C3(C)CC3)CC2)C[C@@H]1c1ccc(Cl)c(Cl)c1 (racemic) [Example 31, rac-{(3R,4S)-4-(3,4-Dichloro-phenyl)-1-[1-(1-methyl-cyclopropanecarbonyl)-piperidine-4-carbonyl]-pyrrolidin-3-yl}-methyl-carbamic acid tetrahydro-pyran-4-ylmethyl ester]	11.6
–	CN(C(=O)OCC1CCCC1)[C@H]1CN(C(=O)C2CCN(C(=O)C3(C)CC3)CC2)C[C@@H]1c1ccc(Cl)c(Cl)c1 (racemic) [Example 32, rac-{(3R,4S)-4-(3,4-Dichloro-phenyl)-1-[1-(1-methyl-cyclopropanecarbonyl)-piperidine-4-carbonyl]-pyrrolidin-3-yl}-methyl-carbamic acid cyclopentylmethyl ester]	1.4
